Data as given in paper PMC10518255, “A first-in-class pan-lysyl oxidase inhibitor impairs stromal remodeling and enhances gemcitabine response and survival in pancreatic cancer” (Nature Cancer, 2023).
Where “and” joins values, the source holds several entries; their conditions need not be identical. Equal entries are not always repeated.

Assays:
pMLC2 = assay: Immunohistochemistry of end-point KPC tumors: stromal regions; type: in vivo, mouse; settings: for Quantification of pMLC2 positive staining in stromal regions: Extended Data 6D, KPC tumours at endpoint, individual FOV
Experimental: All tissues or matrices, including patient TMAs, were fixed in 10% buffered formalin and embedded in paraffin. The 4-μm sections of samples were deparaffinized with xylene and rehydrated in graded ethanol washes. For immunohistochemistry, Bond Dewax Solution (AR9222) was used. Antigen retrieval was performed using Bond RX H2(30) protocol: HIER 30 min ER1 (citrate pH 6) OR ER2 (EDTA pH 9) at 100 °C. Slides were quenched in BOND Polymer Refine Detection (Leica Biosystems DS9800). […] Slides were digitized on an Aperio slide scanner and representative areas per tumor acquired and analyzed by researchers blinded to the conditions of the experiment.
Extended Data Fig. 6 PXS-5505 in combination with gemcitabine in a KPC model. a. Quantification of proliferating cells (Ki67 positive nuclear staining) in KPC tumors at end point, treated as indicated. 5 fields of view (500 μm × 500 μm) per mouse and 10 mice per cohort were scored. […] Quantification of percent coverage of αSMA positive staining in KPC tumors at end point, treated as indicated. 3 fields of view (1000 μm × 1000 μm) per mouse and 10 mice per cohort were scored. […] Quantification of percent coverage of PDGFR-ß positive staining in KPC tumors at end point, treated as indicated. 3 fields of view (1000 μm × 1000 μm) per mouse and 10 mice per cohort were scored. […] Quantification of pMLC2 positive staining in stromal regions of KPC tumors at end point, treated as indicated. 3 fields of view (500 μm × 500 μm) per mouse and 10 mice per cohort were scored. […] Quantification of tumor vasculature (CD31 positive staining) in KPC tumors at end point, treated as indicated. 3 fields of view (1000 μm × 1000 μm) per mouse and 10 mice per cohort were scored. […] Quantification of STAT3 activation (pSTAT3 positive nuclear staining) in KPC tumors at end point, treated as indicated. 3 fields of view (1000 μm × 1000 μm) per mouse and 5 mice per cohort were scored. […] Scale bars = 100 μm. g Quantification of macrophage infiltration (F4/80 positive staining) in KPC tumors at end point, treated as indicated. […]

KPC PDAC tumors = assay: SHG multiphoton imaging of fibrillar collagen in end-point KPC tumors; type: in vivo, mouse; settings: for SHG peak signal intensity: 5 animals per group, 5 FOV per animal, single FOV values
Experimental: Fig. 4 PXS-5505 administered in a KPC in vivo survival study. a, Schematic of the KPC in vivo survival study. Presence of a primary tumor in KPC mice was confirmed by two independent researchers (positive diagnosis) before commencement of daily treatment (Tx) on one of four treatment arms as follows: vehicle, 0.9% saline; Gem, twice-weekly gemcitabine (100 mg kg^−1 i.p.); PXS-5505, daily PXS-5505 at 20 mg kg^−1 i.p.; and PXS-5505 + Gem, daily PXS-5505 at 20 mg kg^−1 i.p. + twice-weekly gemcitabine (100 mg kg^−1 i.p.). b, Table of median survival (since diagnosis/commencement of treatment) across the four treatment groups (n = 30 biologically independent animals (vehicle), n = 31 biologically independent animals (Gem), n = 36 biologically independent animals (PXS-5505), n = 46 biologically independent animals (PXS-5505 + Gem)). c, Kaplan–Meier curves for overall survival across treatment arms (n = 30 biologically independent animals (vehicle), n = 31 biologically independent animals (Gem), n = 36 biologically independent animals (PXS-5505), n = 46 biologically independent animals (PXS-5505 + Gem)). P values determined by log-rank (Mantel–Cox) test. d, Representative maximum intensity projections of SHG multiphoton imaging for tumors from each treatment group (n = 1 FOV taken from one biologically independent animal per group) at end point (scale bars, 100 μm) and quantification of SHG peak signal intensity (n = 5 biologically independent animals per group and five FOV per animal). Data are mean ± s.d. […] Quantification of metastases (n = 18 biologically independent animals (vehicle), n = 18 biologically independent animals (Gem), n = 17 biologically independent animals (PXS-5505), n = 15 biologically independent animals (PXS-5505 + Gem)). Data are mean ± s.d.
SHG imaging of fibrillar collagens was employed to analyze collagen density and organization as performed previously[28],[34],[58]. […] Intensity was recorded with a RLD HyD detector (440/20 nm). […] SHG signal intensities were measured using MATLAB (MathWorks) as described previously[28],[34],[58].

## Nc1ccn([C@@H]2O[C@H](CO)[C@@H](O)C2(F)F)c(=O)n1 [Gem, gemcitabine]
pMLC2
  Quantification of pMLC2 positive staining in stromal regions: 92.08 and 84.2 and 87.45 and 82.3 and 82.92 and 94.71 and 90.49 and 43.06 and 73.39 and 39.68 and 25.28 and 42.05 and 30.69 and 23.6 and 44.73 and 91.07 and 86.73 and 81.83 and 77.4 and 63.11 and 93.35 and 65.58 and 88.53 and 67.95 and 49 and 89.81 and 73.17 and 62.17 and 93.12 and 52.2
pMLC2; KPC tumors at end point
  pMLC2 in stromal regions: increased pMLC2
KPC PDAC tumors
  fibrillar collagen / stromal content by SHG: significantly increased stromal content
  SHG peak signal intensity: 116.837 and 121.251 and 74.7808 and 58.0704 and 58.6614 and 88.5172 and 66.9647 and 76.4458 and 85.1379 and 61.658 and 86.6036 and 56.3648 and 49.2982 and 91.4138 and 56.7061 and 67.2683 and 73.645 and 75.3134 and 83.1972 and 82.1163 and 64.6996 and 72.2796 and 40.261 and 45.2578 and 54.2825

## Cl.Cl.NC/C=C(\F)CS(=O)(=O)c1cccc2cccnc12.O [PXS-5505, (Z)-3-fluoro-4-(quinolin-8-ylsulfonyl)but-2-en-1-amine dihydrochloride monohydrate]
pMLC2
  Quantification of pMLC2 positive staining in stromal regions: 16.71 and 49.28 and 7.302 and 93.81 and 91.78 and 78.97 and 53.28 and 54.73 and 45.61 and 13.2 and 20.93 and 42.23 and 36.07 and 17.51 and 40.83 and 47.04 and 47.28 and 39.88 and 19.03 and 15.52 and 73.22 and 64.14 and 60.07 and 90.97 and 8.8 and 20.91 and 61.66 and 4.245 and 28.34 and 17.54
KPC PDAC tumors
  SHG peak signal intensity: 45.7826 and 42.6725 and 46.4759 and 51.7331 and 29.3681 and 51.0162 and 24.7531 and 11.1698 and 19.0235 and 45.4063 and 19.8592 and 24.5743 and 17.8792 and 16.4101 and 14.0868 and 27.3224 and 22.509 and 34.8879 and 24.4703 and 26.4774 and 34.2776 and 17.1388 and 29.5006 and 45.3832 and 44.8772
